Legend:
[1] = Amount of active oxygen generated by light irradiation, cytochrome method; details: 200 μM solution mixed with cytochrome c in HBSS, light 220-800 nm, 30° C., 20 minutes
Procedure: The amount of generated active oxygen (superoxide anion, O2^−) was measured by cytochrome method. 200 μL of a solution in which cytochrome c (Nacalai Tesque Corporation) was dissolved in a Hanks' balanced salt solution (HBSS, pH 7.4, Lifetech Oriental Company) so that the final concentration might be 50 μM and 200 μL of a solution in which fullerene linked to one molecule of PEG (molecular weight 12000) prepared in Example 2 was dissolved in HBSS so that the final concentration might be 200 μM were mixed. This mixed solution was irradiated with light of various wavelengths (220-800 nm) with spectrophotofluorometer F-2000 (Hitachi, Ltd.) at 30° C. for 20 minutes. After irradiation, absorbance of the solution at 550 nm was measured with spectrophotometer DU-650 (Beckmann Company). The amount of generated O2— per minute was shown in FIG. 4 assuming a solution under light shielding condition at 30° C. for 20 minutes as control.

RLmale 1 cells = test: In vitro cancer cell growth inhibitory activity by light irradiation; type: cell-based; details: 62.5-250 μM solutions, light irradiated for 40 minutes, cultured three days
Procedure: Cancer cell growth inhibitory activity in in vitro by light irradiation was measured. RLmale 1 cells (provided by Kyoto Pasteur Laboratory) were used as a cancer cell and these cells were incubated under culture conditions of 5% CO2, 95% atmosphere, at 37° C. in RPMI 1640 culture medium (Sigma Company, containing 10% fetal bovine serum) with 100 mm dish till they became 80% confluent. The water-soluble fullerene of Example 2 was dissolved in a culture medium of the same composition as used for culture of cancer cells under light shielding condition and after adjusted to the concentration of 250 μM, it was sterilized and filtered. The sterilized solution of 250 μM was diluted with a culture medium sequentially to prepare solutions of 125 μM and 62.5 μM. […] After the culturing for three days, 10 μL each of viable count measurement reagent SF (Nacalai Tesque Corporation) was added into each well, and after kept warm in an incubator for 80 minutes, absorbance at 450 nm was measured with a microplate leader VERSAmax (Japanese Molecular Device Company). The survival rate of cancer cells was determined assuming that the absorbance at 450 nm for the case in which compound of Example 2 was not added was 100% survival rate and the results are shown in FIG. 5.

[2] = Amount of active oxygen generated by ultrasonic irradiation, viable count measurement reagent SF; details: 200 μM solution, 1 MHz, duty cycle 30%, five minutes, output 1.5, 2.0, 2.5 and 3.0 W/cm^2
Procedure: The amount of active oxygen (superoxide anion, O2^−) generated by ultrasonic irradiation was measured using viable count measurement reagent SF with reference to a report by Ukeda (DOJIN NEWS, No. 96, p 1-6, 2000). A solution in which water-soluble fullerene of Example 2 was dissolved in a Hanks' balanced salt solution so that it might be 200 μM was dispensed to 35 mm dish by 750 μL. This was mixed with 600 μL of a Hanks' balanced salt solution and 150 μL of viable count measurement reagent SF and, while stirred, irradiated with ultrasonic waves of various output (1.5, 2.0, 2.5 and 3.0 W/cm^2) with a frequency of 1 MHz, output mode (Duty cycle) 30% for five minutes from the liquid surface using an sonodynamic therapy device US-700 (Ito Ultrashort Wave Company). After irradiation, absorbance of the solution at 450 nm was measured with a spectrophotometer DU-650. The absorbance of the solution irradiated with ultrasonic wave without adding a compound at 450 nm was assumed as control and the amount of generated O2 per minute was shown in FIG. 7.

[3] = Particle size measurement by light scattering method; type: physicochemical; details: in distilled water, 1 mg/mL and 100 μg/mL
Procedure: Particle size measurement by light scattering method was performed on the water-soluble fullerene of the present invention. The water-soluble fullerene which was synthesized with Example 1 was dissolved in distilled water so that the final concentration might be 1 mg/mL and 100 μg/mL. This solution was measured with light scattering measuring apparatus DLS-7000 (Otsuka Electronics Co., Ltd.).

[4] = Molecular weight of aggregate by high performance liquid chromatography (TSKgel G3000PWXL); type: physicochemical; details: HPLC, 50 mM phosphate buffer pH 6.9 with 0.3 M sodium chloride (20% acetonitrile for Example 1), PEG molecular weight markers
Procedure: Measurement of molecular weight of a fraction obtained by extracting the reaction liquid with equivalent amount of distilled water in Example 1 and a fraction after passing the aqueous layer through the cation exchange resin column was carried out using high performance liquid chromatography system 8020 (Tosoh Co., Ltd.) with TSKgel G3000PWXL (Tosoh Co., Ltd.). 50 mM phosphate buffer (pH 6.9) containing 20% acetonitrile and 0.3 M sodium chloride was used as mobile phase with a flow rate of mobile phase of 0.5 mL/min and the detection was performed at ultra-violet absorption of fullerene. Polyethylene glycols having known molecular weight (molecular weight 94,000 and 5,000) were used as molecular weight markers and the retention time was shown in FIG. 1.
As a comparative control, PEG having a methyl group at one end and an aminopropyl group at the other end and having a molecular weight 5000 was used, and the measurement of molecular weight of a fullerene-water-soluble polymer conjugate synthesized in a molar ratio of 1:10 following a method described in Example 1 of JP-A-09-235235 was carried out. 50 mM phosphate buffer (pH 6.9) containing 0.3 M sodium chloride was used as mobile phase with a flow rate of mobile phase of 1 mL/min and the detection was performed at ultra-violet absorption of fullerene. […]

[5] = tested on: mouse colon cancer Colon26; test: In vivo anticancer activity by light irradiation in cancer bearing mice
Procedure: Administration routes were changed and anticancer activity in vivo by light irradiation was compared. Cancer bearing mice were prepared by removing a tumor block which had been passaged from mouse colon cancer Colon26 cells (provided by Cancer Chemotherapy Center of Cancer Research Society) by subcutaneous transplantation of BALB/c-nn (female, Charles River-Laboratories Japan, Inc.) and transplanting a strip piece onto the back subcutis of CDF1 mouse (female, Charles River Laboratories Japan, Inc.). The cancer bearing mice were used in the experiment in five days after transplantation in which cancer having a diameter of around 5 mm was formed in subcutis. […]
Cancer bearing mice to which water-soluble fullerene was not administered and which were not irradiated with light were used as a control group and the size of the tumor of the subcutaneous region was measured for each mouse with time. The cancer size was measured by actually measuring the major axis and the minor axis of the cancer with a slide caliper and calculated using a calculation formula reported by Winn (Natl. Cancer Inst Monogr., Vol. 2, p 113-138 (1960)).

Substance	generation of O2− on light irradiation [1]	wavelength range of particularly significant O2− generation [1]	survival rate of cancer cells (RLmale 1 cells)	amount of active oxygen on ultrasonic irradiation [2]	particle diameter of aggregate [3]	molecular weight of aggregate formed by self assembly [4]	increase of tumor volume ([5]; Colon26 bearing CDF1 mice, administration combined with light irradiation of tumor site, three consecutive days)	order of tumor suppression effect by administration route ([5]; subcutaneous or intra-tumor 6 mg/mL 100 μL, light 5 minutes after, intravenous 60 mg/mL 100 μL, light 24 hours after)
Fullerene Linked to One Molecule of PEG (Molecular Weight 12000) [Example 2]	generation of O2— was observed in a wide wavelength range from ultraviolet to visible light areas	260 to 450 nm	significantly decreases the survival rate of cancer cells as the addition amount thereof increases	the amount of active oxygen increases according to the output increases	about 100 nm	–	–	–
Fullerene Linked to One Molecule of PEG (Molecular Weight 5000) [Example 1]	–	–	–	–	about 50 nm	about 100,000	Increase of a tumor volume was suppressed	subcutaneous administration<intra-tumor administration<intravenous administration

From patent US20080004345A1, “Novel Water-Soluble Fullerene, Process for Producing the Same and Active Oxygen Generator Containing the Fullerene” (priority 2004, published 2008)
